pKi: −log10 of the molar value.
Target: Serine/threonine-protein kinase pim-1 (Homo sapiens, UniProt P11309)
Assay: Biological Assay: Determination of the Pim kinase activity of a Formula I compound is possible by a number of direct and indirect detection methods. Certain exemplary compounds described herein were assayed for their Pim kinase binding activity, including isoforms Pim-1, Pim-2, andPim-3, (Example 901) and in vitro activity against tumor cells (Example 902).
Format: cell-based

Sequence of Serine/threonine-protein kinase pim-1 (P11309 whole entry, canonical isoform): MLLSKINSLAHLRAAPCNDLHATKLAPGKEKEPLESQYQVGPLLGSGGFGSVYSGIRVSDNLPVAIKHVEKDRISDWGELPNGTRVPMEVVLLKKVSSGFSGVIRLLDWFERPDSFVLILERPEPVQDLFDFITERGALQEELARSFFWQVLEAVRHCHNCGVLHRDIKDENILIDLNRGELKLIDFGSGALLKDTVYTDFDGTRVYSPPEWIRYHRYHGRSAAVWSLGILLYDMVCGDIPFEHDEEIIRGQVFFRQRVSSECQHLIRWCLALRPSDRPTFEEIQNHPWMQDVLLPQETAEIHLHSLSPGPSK

Molecule `N[C@@H]1CC[C@@H](c2c(NC(=O)c3csc(-c4c(F)cccc4F)n3)cnn2CC(F)F)OC[C@H]1F` has a pKi of 10.33.

Reference: ChEMBL document CHEMBL5727021, “Oxepan-2-yl-pyrazol-4-yl-heterocyclyl-carboxamide compounds and methods of use” (2018)
